We go through two molecules from patent US20140228248A1, “METHODS AND COMPOSITIONS FOR DETECTING INFECTIONS” (BIOMED VALLEY DISCOVERIES, INC., priority 2011, published 2014).

The test system of one assay is DH5α E. coli. The assay can be described thus: Live cell filter assay in culture media (Millipore NCM filter, scintillation counter). Conditions: for cell based signal over background signal: 10,000 cells incubated for 8 hours, Millipore NCM filter. Format: cell-based. The procedure:
10,000 cells were put into 2 ml of media (LB, SOB, SOC, DeTox™, or TB), and incubated for 8 hours at 37° C. and shaken at 250 rpm. The samples were then passed through the respective filters (Millipore and others) via a syringe, then the samples were washed with 40 ml of PBS via a syringe. The filter samples were counted using a scintillation counter.
Millipore NCM filters were also used in the live cell experiments. […] Moreover, LB and SOB media strongly potentiated the growth of the DH5α E. coli. The cell based signals are 42.78-fold and 82.63-fold, respectively, over background signal for these two media.
10,000, 50,000 or 100,000 DH5α cells were added into 1 ml SOB media, and 1 μl of 1.76 mM ^14C FIAU was added to the mixture to constitute a 1.76 μM solution. The mixture was incubated for 4 to 6 hours at 37° C. in an agitation incubator. After the incubation period, the mixture was passed through a 0.22 μm Millipore nitrocellulose filter. The filter was then washed with 40 ml of 1×PBS using a syringe. The CPM was determined using a scintillation counter.

The next assay deals with DH5α (E. coli) cells. Kind of assay: Detection of cells spiked into human urine / SOB mix (filter assay). It counts as cell-based. Conditions: 10,000 DH5α cells, 50% urine and 50% SOB mix, 1.76 μM, 5 hours. As for the experimental part: In another set of experiments, 10,000 DH5α cells were added into 1 ml human urine. 1 ml of SOB media and 2 μl of 1.76 mM ^14C FIAU was added to the mixture to constitute a 1.76 μM solution. The mixture was incubated for 5 hours at 37° C. in an agitation incubator. After the incubation period, the mixture was passed through a 0.22 μm Millipore nitrocellulose filter. The filter was then washed with 40 ml of 1×PBS using a syringe. The CPM was determined using a scintillation counter. Thus, 10,000 DH5α (E. coli) cells were detectable in a 50% urine and 50% SOB mix in 5 hours.

Another assay relates to DH5α cells. The assay can be described thus: Detection of cells spiked into rat CSF / SOB mix (filter assay). Format: cell-based, E. coli. Conditions: 10,000 cells, 50% CSF (rat) and 50% SOB, 1.76 μM, 5 hours or less. As for the experimental part: An experiment was also performed to determine whether a shorter incubation period is possible. 10,000 DH5α cells were added into 1 ml rat CSF. 1 ml of SOB media and 2 μl of 1.76 mM ^14C FIAU was added to the mixture to constitute a 1.76 μM solution. The mixture was incubated for 5 hours at 37° C. in an agitation incubator. After the incubation period, the mixture was passed through a 0.22 μm Millipore nitrocellulose filter. The filter was then washed with 40 ml of 1×PBS using a syringe. The CPM was determined using a scintillation counter. Thus, 10,000 cells after 5 hours or less of incubation in a mixture containing 50% CSF and 50% SOB were detectable.

Turning to `O=c1[nH]c(=O)n([C@@H]2O[C@H](CO)[C@@H](O)[C@@H]2F)cc1I` [FIAU, 2′-fluoro-5-iodo-1-β-D-arabinofuranosyluracil], the “cell based signal over background signal” value in the assay with DH5α E. coli (LB media) is given as 42.78 fold; with DH5α E. coli (SOB media), 82.63 fold.
`O=c1[nH][14c](=O)n([C@@H]2O[C@H](CO)[C@@H](O)[C@@H]2F)cc1I` [^14C-FIAU, ^14C-labeled 2′-fluoro-5-iodo-1-β-D-arabinofuranosyluracil]: in the assay on DH5α E. coli (10,000 DH5α cells, 1 ml SOB, 1.76 μM (200 mCi/mmol), about 4 hours), the signal versus background entry is reported as “signal above the background”. Further, the detectability of cells result in the assay with DH5α (E. coli) cells and in the assay on DH5α cells was “detectable” in each case.
